Laboratory results published in ChEMBL document CHEMBL2331400, “Structure-based design and evaluation of naphthalene diimide G-quadruplex ligands as telomere targeting agents in pancreatic cancer cells” (J Med Chem, 2013).
The source made the active and inactive calls. The calls are words filed in the database; no cut-off is given here.

What was measured:
[1] = test system: MIA PaCa-2; experiment: Upregulation of PRKCB gene expression in human MIAPaCa2 cells at 20 to 80 nM after 24 hrs by qPCR analysis relative to solvent-treated control; type: functional
[2] = test system: MIA PaCa-2; experiment: Upregulation of GADD45A gene expression in human MIAPaCa2 cells at cytotoxic concentration after 24 hrs by qPCR analysis; type: functional, cell-based
[3] = test system: MIA PaCa-2; experiment: Downregulation of NTHL1 gene expression in human MIAPaCa2 cells at 160 nM after 24 hrs by qPCR analysis; type: functional, cell-based
[4] = test system: MIA PaCa-2; experiment: Downregulation of HUS1 gene expression in human MIAPaCa2 cells at 20 to 160 nM after 24 hrs by qPCR analysis relative to solvent-treated control; type: functional, cell-based
[5] = test system: MIA PaCa-2; experiment: Cytotoxicity against human MIAPaCa2 cells assessed as growth inhibition at 80 nM after 72 hrs by microscopic analysis; type: functional, cell-based
[6] = test system: MIA PaCa-2; experiment: Induction of ATM/[…] gene expression in human MIAPaCa2 cells by qPCR analysis; type: functional, cell-based
[7] = test system: MIA PaCa-2; experiment: Upregulation of CDKN1A gene expression in human MIAPaCa2 cells at cytotoxic concentration after 24 hrs by qPCR analysis; type: functional, cell-based
[8] = test system: MIA PaCa-2; experiment: Downregulation of PPM1D gene expression in human MIAPaCa2 cells at subcytotoxic concentration after 24 hrs by qPCR analysis; type: functional, cell-based
[9] = test system: MIA PaCa-2; experiment: Downregulation of SLX4 gene expression in human MIAPaCa2 cells at 20 to 80 nM after 24 hrs by qPCR analysis relative to solvent-treated control; type: functional
[10] = test system: MIA PaCa-2; experiment: Downregulation of […] gene expression in human MIAPaCa2 cells at 20 to 80 nM after 24 hrs by qPCR analysis relative to solvent-treated control; type: functional
[11] = test system: MIA PaCa-2; experiment: Downregulation of MPG gene expression in human MIAPaCa2 cells at 20 to 160 nM after 24 hrs by qPCR analysis relative to solvent-treated control; type: functional, cell-based
[12] = test system: MIA PaCa-2; experiment: Downregulation of TP73 gene expression in human MIAPaCa2 cells at 160 nM after 24 hrs by qPCR analysis; type: functional, cell-based
[13] = test system: MIA PaCa-2; experiment: Downregulation of CDKN1A gene expression in human MIAPaCa2 cells at subcytotoxic concentration after 24 hrs by qPCR analysis; type: functional, cell-based

`CN1CCN(CCCNc2cc3c4c(c(NCCCN5CCN(C)CC5)cc5c4c2C(=O)N(CCCN2CCOCC2)C5=O)C(=O)N(CCCN2CCOCC2)C3=O)CC1` was tested, and the “fold change (FC)” value [1] was over 2, the Activity [2] was “Active” and the Activity [3] was “Active”. The Activity [4] was “Active”, the “growth inhibition (GI)” value [5] was “inactive” and the Activity [6] was “inactive”. For the same compound, the Activity [7] was “Active”, the Activity [8] was “inactive” and the “fold change (FC)” value [9] was over 2. For the same compound, the “fold change (FC)” value [10] was over 2, the Activity [11] was “Active” and the Activity [12] was “Active”. For the same compound, the Activity [13] was “inactive”.
